According to PMC6085350, “Small molecule inhibitors of RAS-effector protein interactions derived using an intracellular antibody fragment” (Nature Communications, 2018):
In brackets after ≈: the same amount, converted by molar mass.

Legend:
Solubility = type: physicochemical
KRAS-GDP = assay: waterLOGSY NMR binding to GDP form
Procedure: The waterLOGSY NMR method[35] was used to measure RAS ligand interaction. WaterLOGSY experiments were conducted at a ^1H frequency of 600 MHz using a Bruker Avance spectrometer equipped with a BBI probe. All experiments were conducted at 298 K, 3 mm diameter NMR tubes with a sample final volume of 200 µl was used in all experiments. Solutions were buffered using an H2O 10 mM PBS, 5 mM MgCl2 buffer corrected to pH 7.4. The sample preparation is exemplified as follows, the compound (10 µl of a […] solution in DMSO-d6) was added to an eppendorf before sequential addition of the H2O PBS buffer (163.6 µl), D2O (20 µl), and protein (6.4 µl, 311.8 µM). The resulting solution was spun to ensure full mixing and transferred to a 3 mm NMR tube before running the experiment. For a competition experiment using Y6-scFv or VH, the preparation was carried out in a similar manner; the compound (10 µl of a 10 mM solution in DMSO-d6) was added to an eppendorf before sequential addition of the H2O PBS buffer (146.4 µl), D2O (20 µl), protein (6.4 µl, 311.8 µM) and Y6-ScFv (17.2 µl, 116.6 µM) with a ratio of 5.5:1:1. The resulting solution was spun and transferred to a 3 mm NMR tube before the run. […]
Supplementary Figure 3: Abd-2 WaterLOGSY NMR with and without anti RAS-scFV Abd-2 was analyzed by waterLOGSY. […]

MEK2 = target: T1, MEK2 (Homo sapiens, UniProt P36507); assay: Kinase panel (KinaseProfiler); type: biochemical; conditions: MEK2, 10μM
T1 construct: purchased Eurofins Pharma Discovery Services (KinaseProfiler)
Procedure: (§1) Experiments were performed by Eurofins Pharma Discovery Services. The KinaseProfiler™ assay protocol guide can be downloaded from their website: www.eurofins.com/discoveryservices. The guide contains information on the buffer conditions, substrate and reference inhibitor blank used for each kinase.
(§2) Supplementary Table 3. Assessment of potential interaction of Abd-7 with a human kinase
(§3) Kinase % kinase activity in
(§4) A panel of 14 Kinases (relevant to the RAS pathway) has been screened against Abd-7
(§5) (10μM) and the kinase activity was measured. […] of activity was observe for all
(§6) function of the selected and RAS relevant kinase proteins.

EGFR = target: T2, EGFR (Homo sapiens, UniProt P00533); assay: Kinase panel (KinaseProfiler); type: biochemical; conditions: 10μM
T2 construct: purchased Eurofins Pharma Discovery Services (KinaseProfiler)
Procedure: as §1, §2, §3, §4, §5, §6

mTOR = target: T3, mTOR (Homo sapiens, UniProt P42345); assay: Kinase panel (KinaseProfiler); type: biochemical; conditions: 10μM
T3 construct: purchased Eurofins Pharma Discovery Services (KinaseProfiler)
Procedure: as §1, §2, §3, §4, §5, §6

[1] = system: AKT phosphorylation (Ser473) in DLD-1 cells (KRAS^G13D); assay: Biomarker phosphorylation assay, pAKT, DLD-1; type: cell-based, human; conditions: EGF 10 min
Procedure: (§7) Fig. 5 Abd-7 results on RAS-dependent signalling pathways and cell viability. a, b DLD-1 (a) or H358 (b) cells were serum-starved for 24 h, incubated in mono-layer with Abd-7 in a range from 2, 5, 10 and 20 μM for 3 h and stimulated with EGF 10 min. Proteins were extracted and separated by SDS-PAGE and transferred to membranes for Western analysis with anti-pAKT, anti-pERK, anti-pan AKT and anti-pan ERK. Anti-cyclophilin B antibody was the loading control. Signal was developed using standard ECL. c–e Effects of compounds Abd-2, Abd-4, Abd-5, Abd-6, and Abd-7 on the viability of human cancer cells lines was assessed for a 2-D culture of DLD-1 (mutant KRAS^G13D) cells and HT1080 cells (mutant NRAS^Q61K). The cells were treated with a dose range from 0 μM to 20 μ and incubated for 72 h when cell viability was assessed using CellTitreGlo. […] Each experiment was repeated at least three times (a, b) and four times (c, d). Where error bars are presented, they correspond to mean values ± SD of biological repeats
A total of 450,000 DLD1 or 640,000 H358 cells were seeded per well of a six well plate. Approximately, 20 h later, the medium was removed, the cells washed twice with PBS and DMEM without FBS was added and left for 24 h. The medium was removed and 2 ml of DMEM no FBS was added with the appropriate concentration of compound (DMSO, 2, 5, 10 or 20 μM) for 3 h. Cells were stimulated with EGF (50 ng/ml) for 10 min, washed once with PBS and directly lysed in SDS-Tris buffer (1% SDS, 10 mM Tris-HCl pH 7.4) supplemented with protease inhibitors (Sigma) and phosphatase inhibitors (Thermo-Fisher). Cell lysates were sonicated with a Branson Sonifier and the protein concentrations determined by using the Pierce BCA protein assay kit (Thermo-Fisher). Furthermore, 10 μg of protein were resolved on 10 or 12.5% SDS-PAGE and subsequently transferred onto a PVDF membrane (GE). The membrane was blocked (with 10% non-fat milk (Sigma) or 10% BSA (Sigma) in TBS-0.1% Tween20) and incubated overnight with primary antibody at 4 °C. […]

[2] = system: ERK1/2 phosphorylation in DLD-1 cells (KRAS^G13D); assay: Biomarker phosphorylation assay, pERK, DLD-1; type: cell-based, human; conditions: DLD-1, 2-20 μM, 3 h, EGF 10 min
Procedure: as §7
A total of 450,000 DLD1 or 640,000 H358 cells were seeded per well of a six well plate. Approximately, 20 h later, the medium was removed, the cells washed twice with PBS and DMEM without FBS was added and left for 24 h. […] Cell lysates were sonicated with a Branson Sonifier and the protein concentrations determined by using the Pierce BCA protein assay kit (Thermo-Fisher). […]

T2 sequence (P00533 25-1210): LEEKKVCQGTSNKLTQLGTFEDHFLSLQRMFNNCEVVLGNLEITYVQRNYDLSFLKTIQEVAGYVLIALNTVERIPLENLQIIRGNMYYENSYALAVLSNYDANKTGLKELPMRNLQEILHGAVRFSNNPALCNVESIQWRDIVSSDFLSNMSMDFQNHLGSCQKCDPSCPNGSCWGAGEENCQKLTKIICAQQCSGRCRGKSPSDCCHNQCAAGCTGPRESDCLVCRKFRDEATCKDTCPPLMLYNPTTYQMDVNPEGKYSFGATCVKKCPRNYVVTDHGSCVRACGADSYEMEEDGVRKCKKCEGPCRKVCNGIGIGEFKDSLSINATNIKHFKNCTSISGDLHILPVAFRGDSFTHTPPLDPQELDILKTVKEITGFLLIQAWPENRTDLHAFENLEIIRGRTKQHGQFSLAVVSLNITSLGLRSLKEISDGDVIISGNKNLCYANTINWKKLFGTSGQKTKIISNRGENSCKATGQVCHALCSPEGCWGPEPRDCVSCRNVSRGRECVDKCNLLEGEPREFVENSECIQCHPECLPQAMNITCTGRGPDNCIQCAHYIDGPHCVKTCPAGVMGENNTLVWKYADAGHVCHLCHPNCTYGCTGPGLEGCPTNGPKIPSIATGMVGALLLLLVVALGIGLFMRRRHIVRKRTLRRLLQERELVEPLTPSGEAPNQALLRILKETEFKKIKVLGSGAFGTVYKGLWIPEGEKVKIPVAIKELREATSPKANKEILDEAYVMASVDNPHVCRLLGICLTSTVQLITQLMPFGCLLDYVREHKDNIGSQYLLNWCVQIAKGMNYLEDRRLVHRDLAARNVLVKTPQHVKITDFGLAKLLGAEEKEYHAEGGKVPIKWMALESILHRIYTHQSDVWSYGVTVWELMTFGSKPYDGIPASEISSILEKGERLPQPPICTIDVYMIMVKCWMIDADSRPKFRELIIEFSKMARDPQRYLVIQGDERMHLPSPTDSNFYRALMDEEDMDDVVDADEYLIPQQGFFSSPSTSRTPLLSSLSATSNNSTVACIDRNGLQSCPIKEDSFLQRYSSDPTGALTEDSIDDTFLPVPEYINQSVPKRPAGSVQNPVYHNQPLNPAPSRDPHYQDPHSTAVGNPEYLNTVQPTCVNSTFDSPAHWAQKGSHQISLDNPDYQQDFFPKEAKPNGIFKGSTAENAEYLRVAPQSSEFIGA
T1 sequence (P36507 whole entry): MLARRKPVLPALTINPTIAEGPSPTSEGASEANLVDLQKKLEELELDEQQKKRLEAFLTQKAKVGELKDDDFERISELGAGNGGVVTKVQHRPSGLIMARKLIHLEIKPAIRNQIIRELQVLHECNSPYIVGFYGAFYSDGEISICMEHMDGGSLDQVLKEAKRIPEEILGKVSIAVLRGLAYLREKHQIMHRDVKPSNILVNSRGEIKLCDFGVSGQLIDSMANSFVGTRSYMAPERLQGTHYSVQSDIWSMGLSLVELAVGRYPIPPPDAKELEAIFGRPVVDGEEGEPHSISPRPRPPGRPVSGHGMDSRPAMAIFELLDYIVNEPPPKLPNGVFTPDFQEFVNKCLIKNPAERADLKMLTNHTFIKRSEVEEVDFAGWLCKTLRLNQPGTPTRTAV

For O=C(NCC1COc2ccccc2O1)c1ccco1 (stereo not drawn) [Abd-2], the solubility (Solubility) was 446 µM (≈ 116 µg/mL) and the “binding to KRAS-GDP (waterLOGSY)” value (KRAS-GDP) was “poor binding”.
In the case of COc1nc(-c2cccc3c2OCCO3)ccc1Nc1ccc(CN(C)C)cc1 [Abd-7], the “% kinase activity in the presence of Abd-7” value (“% kinase activity” for short) (MEK2) is reported as 101%, the “% kinase activity” value (EGFR) is reported as 93% and the “% kinase activity” value (mTOR) is reported as 89%. For the same compound, the “inhibition of AKT phosphorylation” value ([1]; DLD-1, 20 μM, 3 h) was “complete inhibition”, the “concentration at which inhibition of AKT phosphorylation initiates” value ([1]; DLD-1, starved 24 h, 3 h compound, Western) was 2 µM and the inhibition at 10 µM ([1]; Homo sapiens, DLD-1, 10 μM, 3 h) was > 50%. The “inhibition of ERK1/2 phosphorylation” value [2] was “diminution of pERK levels”.
